Laboratory results taken from ChEMBL document CHEMBL4602719, “Discovery of Potent, Selective, and Orally Bioavailable Inhibitors of USP7 with In Vivo Antitumor Activity” (J Med Chem, 2020).

What was measured:
[1] = molecular target: Ubiquitin carboxyl-terminal hydrolase 14 (Homo sapiens, UniProt P54578); assay: Inhibition of human His6-tagged USP14 expressed in Escherichia coli using Ubiquitin-Rhodamine110-glycine as substrate by fluorescence based analysis
[2] = Inhibition of human GST-tagged OTUD5 P177S mutant expressed in Escherichia coli assessed as cleavage of Ubiquitin-Rhodamine110-glycine to Ubiquitin and Rhodamine110-glycine using Ubiquitin-Rhodamine110-glycine as substrate by fluorescence based analysis
[3] = molecular target: Ubiquitin carboxyl-terminal hydrolase 8 (Homo sapiens, UniProt P40818); assay: Inhibition of human USP8 expressed in Escherichia coli assessed as cleavage of Ubiquitin-Rhodamine110-glycine to Ubiquitin and Rhodamine110-glycine using Ubiquitin-Rhodamine110-glycine as substrate by fluorescence based analysis
[4] = Clearance in Sprague-Dawley rat at 0.5 mg/kg, iv; assay type: ADME, organism-based; conditions: in vivo
[5] = molecular target: Ubiquitin carboxyl-terminal hydrolase 15 (Homo sapiens, UniProt Q9Y4E8); assay: Inhibition of human USP15 isoform 2 expressed in Escherichia coli assessed as cleavage of Ubiquitin-Rhodamine110-glycine to Ubiquitin and Rhodamine110-glycine using Ubiquitin-Rhodamine110-glycine as substrate by fluorescence based analysis
[6] = molecular target: Ataxin-3 (Homo sapiens, UniProt P54252); assay: Inhibition of human GST-tagged Ataxin-3 expressed in Escherichia coli assessed as cleavage of Ubiquitin-Rhodamine110-glycine to Ubiquitin and Rhodamine110-glycine using Ubiquitin-Rhodamine110-glycine as substrate by fluorescence based analysis
Ataxin-3, sequence (P54252 whole entry): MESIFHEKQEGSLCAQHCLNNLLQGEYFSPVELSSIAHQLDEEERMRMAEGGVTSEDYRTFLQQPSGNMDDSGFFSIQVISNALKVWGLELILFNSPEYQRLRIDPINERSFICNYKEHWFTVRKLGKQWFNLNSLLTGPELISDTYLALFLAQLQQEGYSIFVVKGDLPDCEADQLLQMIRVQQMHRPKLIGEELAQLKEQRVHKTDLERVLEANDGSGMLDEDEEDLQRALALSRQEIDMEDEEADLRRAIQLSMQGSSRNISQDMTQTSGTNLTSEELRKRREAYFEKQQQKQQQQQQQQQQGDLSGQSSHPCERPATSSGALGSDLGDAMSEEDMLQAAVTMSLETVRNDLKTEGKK

[7] = molecular target: Josephin-1 (Homo sapiens, UniProt Q15040); assay: Inhibition of human His6-tagged JOSD1 expressed in Escherichia coli assessed as cleavage of Ubiquitin-Rhodamine110-glycine to Ubiquitin and Rhodamine110-glycine using Ubiquitin-Rhodamine110-glycine as substrate by fluorescence based analysis
[8] = molecular target: Ubiquitin thioesterase OTU1 (Homo sapiens, UniProt Q5VVQ6); assay: Inhibition of human GST-tagged OTU1 expressed in Escherichia coli assessed as cleavage of Ubiquitin-Rhodamine110-glycine to Ubiquitin and Rhodamine110-glycine using Ubiquitin-Rhodamine110-glycine as substrate by fluorescence based analysis
Ubiquitin thioesterase OTU1, sequence (Q5VVQ6 whole entry, the tested form may be a part): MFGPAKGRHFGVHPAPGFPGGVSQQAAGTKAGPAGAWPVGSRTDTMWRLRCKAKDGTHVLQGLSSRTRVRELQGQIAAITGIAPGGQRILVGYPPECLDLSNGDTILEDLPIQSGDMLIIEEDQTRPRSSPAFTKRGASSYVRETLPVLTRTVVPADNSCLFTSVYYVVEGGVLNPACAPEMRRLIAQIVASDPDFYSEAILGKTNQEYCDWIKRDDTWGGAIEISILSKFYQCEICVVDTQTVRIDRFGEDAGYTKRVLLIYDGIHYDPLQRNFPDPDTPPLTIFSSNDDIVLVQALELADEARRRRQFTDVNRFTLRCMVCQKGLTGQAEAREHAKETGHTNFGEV

[9] = molecular target: OTU domain-containing protein 7B (Homo sapiens, UniProt Q6GQQ9); assay: Inhibition of cezanne (unknown origin)
[10] = molecular target: Ubiquitin thioesterase OTUB2 (Homo sapiens, UniProt Q96DC9); assay: Inhibition of human GST-tagged OTUB2 expressed in Escherichia coli assessed as cleavage of Ubiquitin-Rhodamine110-glycine to Ubiquitin and Rhodamine110-glycine using Ubiquitin-Rhodamine110-glycine as substrate by fluorescence based analysis
[11] = molecular target: Ubiquitin carboxyl-terminal hydrolase 9X (Homo sapiens, UniProt Q93008); assay: Inhibition of human GST-tagged USP9X CD (1554 to 1995 residues) expressed in Escherichia coli assessed as cleavage of Ubiquitin-Rhodamine110-glycine to Ubiquitin and Rhodamine110-glycine using Ubiquitin-Rhodamine110-glycine as substrate by fluorescence based analysis
Ubiquitin carboxyl-terminal hydrolase 9X, sequence (Q93008 whole entry, the tested form may be a part): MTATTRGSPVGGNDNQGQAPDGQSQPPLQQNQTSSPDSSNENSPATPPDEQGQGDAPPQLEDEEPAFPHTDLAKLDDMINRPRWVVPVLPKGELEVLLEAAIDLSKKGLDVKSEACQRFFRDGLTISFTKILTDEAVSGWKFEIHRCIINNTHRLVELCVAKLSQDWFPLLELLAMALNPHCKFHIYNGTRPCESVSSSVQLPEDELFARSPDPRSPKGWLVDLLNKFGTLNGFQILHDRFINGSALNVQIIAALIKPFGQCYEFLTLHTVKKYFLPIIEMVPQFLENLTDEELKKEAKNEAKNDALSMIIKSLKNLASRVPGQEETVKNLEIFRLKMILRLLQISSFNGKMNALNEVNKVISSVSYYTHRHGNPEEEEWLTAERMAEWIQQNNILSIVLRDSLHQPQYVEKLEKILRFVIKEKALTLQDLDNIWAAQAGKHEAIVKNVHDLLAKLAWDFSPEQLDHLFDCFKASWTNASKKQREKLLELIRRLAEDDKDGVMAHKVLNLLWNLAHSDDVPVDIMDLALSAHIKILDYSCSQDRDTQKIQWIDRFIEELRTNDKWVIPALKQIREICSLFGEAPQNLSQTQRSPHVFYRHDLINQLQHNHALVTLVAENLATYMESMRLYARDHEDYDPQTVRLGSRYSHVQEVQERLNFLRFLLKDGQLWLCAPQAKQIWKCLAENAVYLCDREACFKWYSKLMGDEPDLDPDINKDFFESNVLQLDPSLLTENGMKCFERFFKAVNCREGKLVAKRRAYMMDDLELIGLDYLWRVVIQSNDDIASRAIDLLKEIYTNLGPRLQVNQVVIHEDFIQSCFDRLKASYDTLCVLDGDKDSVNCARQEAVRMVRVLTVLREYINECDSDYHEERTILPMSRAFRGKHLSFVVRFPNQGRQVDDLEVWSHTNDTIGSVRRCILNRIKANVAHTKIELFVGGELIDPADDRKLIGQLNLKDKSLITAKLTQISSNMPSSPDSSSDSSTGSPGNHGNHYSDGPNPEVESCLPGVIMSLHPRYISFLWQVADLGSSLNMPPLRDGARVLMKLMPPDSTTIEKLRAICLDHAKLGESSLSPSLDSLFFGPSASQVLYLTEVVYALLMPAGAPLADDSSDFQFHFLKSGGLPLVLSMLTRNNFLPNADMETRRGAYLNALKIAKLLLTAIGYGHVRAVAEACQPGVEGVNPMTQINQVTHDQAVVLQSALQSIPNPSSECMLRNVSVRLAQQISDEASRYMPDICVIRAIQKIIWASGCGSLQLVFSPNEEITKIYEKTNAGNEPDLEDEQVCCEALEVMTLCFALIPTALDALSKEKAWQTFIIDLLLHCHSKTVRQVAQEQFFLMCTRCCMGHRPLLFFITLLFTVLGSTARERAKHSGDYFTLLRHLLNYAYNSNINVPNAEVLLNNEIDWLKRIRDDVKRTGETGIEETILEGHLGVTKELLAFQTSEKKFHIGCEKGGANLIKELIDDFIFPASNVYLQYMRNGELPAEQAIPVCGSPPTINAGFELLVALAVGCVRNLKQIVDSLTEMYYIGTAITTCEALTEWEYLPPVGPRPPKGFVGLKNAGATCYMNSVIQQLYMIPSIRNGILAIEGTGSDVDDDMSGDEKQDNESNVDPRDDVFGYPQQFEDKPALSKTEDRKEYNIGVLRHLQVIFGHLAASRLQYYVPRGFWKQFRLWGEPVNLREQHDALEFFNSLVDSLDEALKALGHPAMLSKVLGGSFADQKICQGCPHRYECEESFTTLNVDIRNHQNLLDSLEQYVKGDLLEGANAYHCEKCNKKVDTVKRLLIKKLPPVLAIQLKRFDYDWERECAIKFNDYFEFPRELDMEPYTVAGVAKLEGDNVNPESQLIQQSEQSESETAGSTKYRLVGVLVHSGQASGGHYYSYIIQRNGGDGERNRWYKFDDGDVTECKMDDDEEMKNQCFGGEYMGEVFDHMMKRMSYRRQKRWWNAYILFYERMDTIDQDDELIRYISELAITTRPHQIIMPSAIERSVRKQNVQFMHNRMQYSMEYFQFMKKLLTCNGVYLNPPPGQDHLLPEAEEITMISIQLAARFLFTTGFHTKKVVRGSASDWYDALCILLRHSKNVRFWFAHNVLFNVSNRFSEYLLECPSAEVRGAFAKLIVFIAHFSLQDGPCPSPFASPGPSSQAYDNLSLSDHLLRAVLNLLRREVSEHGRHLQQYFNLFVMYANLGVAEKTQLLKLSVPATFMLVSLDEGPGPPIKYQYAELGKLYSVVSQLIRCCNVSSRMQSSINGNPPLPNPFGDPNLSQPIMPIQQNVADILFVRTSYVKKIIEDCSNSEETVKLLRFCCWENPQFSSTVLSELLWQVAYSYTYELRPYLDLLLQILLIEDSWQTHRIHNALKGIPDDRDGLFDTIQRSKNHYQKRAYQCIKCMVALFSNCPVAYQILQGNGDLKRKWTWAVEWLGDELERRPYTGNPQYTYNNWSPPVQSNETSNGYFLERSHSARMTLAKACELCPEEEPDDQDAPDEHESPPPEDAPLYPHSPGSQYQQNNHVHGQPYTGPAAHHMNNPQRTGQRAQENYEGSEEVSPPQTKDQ

[12] = molecular target: Ubiquitin carboxyl-terminal hydrolase isozyme L1 (Homo sapiens, UniProt P09936); assay: Inhibition of human 6His-tagged UCHL1 expressed in Escherichia coli assessed as cleavage of Ubiquitin-Rhodamine110-glycine to Ubiquitin and Rhodamine110-glycine using Ubiquitin-Rhodamine110-glycine as substrate by fluorescence based analysis
[13] = molecular target: Ubiquitin carboxyl-terminal hydrolase 27 (Homo sapiens, UniProt A6NNY8); assay: Inhibition of human DAC-tagged USP27X expressed in Escherichia coli assessed as cleavage of […]-linked di-ubiquitin to mono-ubiquitin using di-ubiquitin as substrate by mass spectrometry
Ubiquitin carboxyl-terminal hydrolase 27, sequence (A6NNY8 whole entry): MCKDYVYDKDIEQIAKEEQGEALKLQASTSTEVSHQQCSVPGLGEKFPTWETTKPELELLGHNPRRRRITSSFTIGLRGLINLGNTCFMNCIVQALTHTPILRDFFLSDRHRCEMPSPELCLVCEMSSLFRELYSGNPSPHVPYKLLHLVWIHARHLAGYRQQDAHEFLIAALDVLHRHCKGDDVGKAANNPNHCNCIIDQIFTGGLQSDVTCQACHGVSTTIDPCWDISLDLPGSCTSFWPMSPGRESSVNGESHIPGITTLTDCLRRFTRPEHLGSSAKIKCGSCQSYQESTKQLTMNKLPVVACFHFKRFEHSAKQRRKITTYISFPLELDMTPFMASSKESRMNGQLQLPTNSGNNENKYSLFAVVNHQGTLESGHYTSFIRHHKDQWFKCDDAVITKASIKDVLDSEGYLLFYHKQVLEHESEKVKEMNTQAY

[14] = AUC in Sprague-Dawley rat at 2 mg/kg, po; assay type: ADME, organism-based; conditions: in vivo
[15] = molecular target: OTU domain-containing protein 6A (Homo sapiens, UniProt Q7L8S5); assay: Inhibition of human His6-tagged OTUD6A expressed in Escherichia coli assessed as cleavage of Ubiquitin-Rhodamine110-glycine to Ubiquitin and Rhodamine110-glycine using Ubiquitin-Rhodamine110-glycine as substrate by fluorescence based analysis
OTU domain-containing protein 6A, sequence (Q7L8S5 whole entry, the tested form may be a part): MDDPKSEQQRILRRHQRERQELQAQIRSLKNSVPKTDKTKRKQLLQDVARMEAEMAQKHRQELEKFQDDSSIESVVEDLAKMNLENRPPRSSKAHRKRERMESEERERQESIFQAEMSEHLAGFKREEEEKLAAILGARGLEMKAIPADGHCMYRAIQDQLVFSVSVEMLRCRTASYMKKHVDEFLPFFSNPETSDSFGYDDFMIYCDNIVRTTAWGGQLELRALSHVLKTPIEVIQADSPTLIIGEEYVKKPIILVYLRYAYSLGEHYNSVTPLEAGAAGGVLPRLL

[16] = molecular target: Ubiquitin carboxyl-terminal hydrolase 21 (Homo sapiens, UniProt Q9UK80); assay: Inhibition of human GST-tagged USP21 CD (196 to 565 residues) expressed in Escherichia coli assessed as cleavage of Ubiquitin-Rhodamine110-glycine to Ubiquitin and Rhodamine110-glycine using Ubiquitin-Rhodamine110-glycine as substrate by fluorescence based analysis
Ubiquitin carboxyl-terminal hydrolase 21, sequence (Q9UK80 whole entry, the tested form may be a part, canonical isoform): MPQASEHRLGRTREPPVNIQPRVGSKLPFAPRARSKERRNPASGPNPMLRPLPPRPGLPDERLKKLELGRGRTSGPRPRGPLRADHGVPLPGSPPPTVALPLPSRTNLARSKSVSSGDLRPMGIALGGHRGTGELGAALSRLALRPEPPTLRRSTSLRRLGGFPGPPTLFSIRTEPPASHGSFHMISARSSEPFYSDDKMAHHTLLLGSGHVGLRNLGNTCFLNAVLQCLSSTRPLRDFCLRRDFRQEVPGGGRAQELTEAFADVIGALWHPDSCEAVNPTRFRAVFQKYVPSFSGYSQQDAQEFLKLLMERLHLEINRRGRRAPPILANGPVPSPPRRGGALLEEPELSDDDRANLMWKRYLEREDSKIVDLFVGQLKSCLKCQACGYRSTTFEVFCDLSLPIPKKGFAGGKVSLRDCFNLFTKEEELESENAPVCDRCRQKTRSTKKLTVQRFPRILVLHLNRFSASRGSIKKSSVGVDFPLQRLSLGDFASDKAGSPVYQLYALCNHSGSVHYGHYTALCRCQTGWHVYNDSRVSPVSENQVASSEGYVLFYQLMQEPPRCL

[17] = molecular target: Ubiquitin carboxyl-terminal hydrolase 2 (Homo sapiens, UniProt O75604); assay: Inhibition of human GST-tagged USP2 isoform 4 expressed in Escherichia coli assessed as cleavage of Ubiquitin-Rhodamine110-glycine to Ubiquitin and Rhodamine110-glycine using Ubiquitin-Rhodamine110-glycine as substrate by fluorescence based analysis
[18] = molecular target: Ubiquitin carboxyl-terminal hydrolase 20 (Homo sapiens, UniProt Q9Y2K6); assay: Inhibition of human GST-tagged USP20 expressed in Sf21 insect cells assessed as cleavage of Ubiquitin-Rhodamine110-glycine to Ubiquitin and Rhodamine110-glycine using Ubiquitin-Rhodamine110-glycine as substrate by fluorescence based analysis
[19] = molecular target: AMSH-like protease (Homo sapiens, UniProt Q96FJ0); assay: Inhibition of human GST-tagged AMSH-LP CD (264 to 436 residues) expressed in Escherichia coli assessed as cleavage of Ubiquitin-Rhodamine110-glycine to Ubiquitin and Rhodamine110-glycine using Ubiquitin-Rhodamine110-glycine as substrate by fluorescence based analysis

Ubiquitin carboxyl-terminal hydrolase 14, sequence (P54578 whole entry): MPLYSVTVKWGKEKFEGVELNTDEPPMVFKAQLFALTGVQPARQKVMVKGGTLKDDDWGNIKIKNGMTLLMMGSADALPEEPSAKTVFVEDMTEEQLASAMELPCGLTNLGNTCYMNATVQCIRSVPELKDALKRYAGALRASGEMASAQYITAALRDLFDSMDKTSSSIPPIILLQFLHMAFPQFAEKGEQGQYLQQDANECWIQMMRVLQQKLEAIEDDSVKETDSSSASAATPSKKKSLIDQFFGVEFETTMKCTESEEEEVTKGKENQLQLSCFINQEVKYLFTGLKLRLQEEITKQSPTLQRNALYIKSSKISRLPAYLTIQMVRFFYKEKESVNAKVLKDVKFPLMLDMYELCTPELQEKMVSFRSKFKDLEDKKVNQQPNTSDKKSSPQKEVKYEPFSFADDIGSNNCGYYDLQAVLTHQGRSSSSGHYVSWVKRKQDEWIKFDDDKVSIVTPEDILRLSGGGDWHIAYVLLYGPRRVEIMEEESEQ

**Q.** For Cc1cc(Cl)cc(-c2ccnc3cc(CN4C(=O)C5C(C4=O)C5(C)C)sc23)c1O[C@@H]1CCNC[C@@H]1C (some centres undefined), which IC50 [1] is on record?
**A.** Its IC50 is > 10 µM.

**Q.** And the IC50 [2]?
**A.** The IC50 was > 10 µM.

**Q.** And the IC50 [3]?
**A.** The IC50 was > 10 µM.

**Q.** And the clearance [4]?
**A.** Its clearance is 1.83 mL/min/kg.

**Q.** And the IC50 [5]?
**A.** The IC50 was > 10 µM.

**Q.** What about the IC50 [6] of the same molecule?
**A.** Its IC50 is > 10 µM.

**Q.** What about the IC50 [7] of the same molecule?
**A.** Its IC50 is > 10 µM.

**Q.** And the IC50 [8]?
**A.** The IC50 was > 10 µM.

**Q.** And the IC50 [9]?
**A.** The IC50 was > 10 µM.

**Q.** What about the IC50 [10] of the same molecule?
**A.** The IC50 was > 10 µM.

**Q.** And the IC50 [11]?
**A.** The IC50 was > 10 µM.

**Q.** And the IC50 [12]?
**A.** Its IC50 is > 10 µM.

**Q.** What about the IC50 [13] of the same molecule?
**A.** Its IC50 is > 10 µM.

**Q.** What about the AUC [14] of the same molecule?
**A.** Its AUC is 4700 ng·h/mL.

**Q.** What about the IC50 [15] of the same molecule?
**A.** The IC50 was > 10 µM.

**Q.** What about the IC50 [16] of the same molecule?
**A.** Its IC50 is > 10 µM.

**Q.** And the IC50 [17]?
**A.** The IC50 was > 10 µM.

**Q.** What about the IC50 [18] of the same molecule?
**A.** The IC50 was > 10 µM.

**Q.** What about the IC50 [19] of the same molecule?
**A.** Its IC50 is > 10 µM.
